Data reported in patent US11091490B2, “3-amino-1,5-dihydro-pyrazolo[3,4-d]pyrimidin-4-ones as cyclin dependent kinase inhibitors” (Oncotyrol Center for Personalized Cancer Medicine GMBH, priority 2016, dated 2021).
In brackets after ≈: the same amount, converted by molar mass. Where two headings read alike, the source gives them in different places.

Experiment: Solubility in water
Assay type: physicochemical
Text: The water solubility of preferred compound 86 and the compound of Example 49 of WO 02/967654 A2 have been compared.

Work on CCN(CC)CC(=O)Nc1ccc(Cc2nc3c(c(N(C)C)nn3-c3c(Cl)cc(S(N)(=O)=O)cc3Cl)c(=O)[nH]2)cc1 [Compound 86, N-{4-[1-(2,6-Dichloro-4-sulfamoyl-phenyl)-3-dimethylamino-4-oxo-4,5-dihydro-1H-pyrazolo[3,4-d]pyrimidin-6-ylmethyl]-phenyl}-2-diethylamino-acetamide] yielded a solubility (aqueous buffer, pH 2.0, read-out: Solubility in water at pH 2.0) of 129 µM (≈ 80.2 µg/mL) and a solubility (pH 7.4, aqueous buffer, read-out: Solubility in water at pH 7.4) of 105 µM (≈ 65.3 µg/mL).
